Key:
PI3K = assay: Western blot of knee joint protein extracts, PI3K; type: in vivo, rat; settings: OA rats, CF101 treated vs control, FIG. 4B
Text: (§1) To explore the fate of the A3AR and downstream key signaling proteins participating in the NF-kB and Wnt signaling pathways, knee joints protein extracts from control and CF101 treated animal were subjected to Western blot analysis.

A3AR = target: T1, A3AR (Rattus norvegicus, UniProt P28647); assay: Western blot of knee joint protein extracts, A3AR; type: in vivo; settings: OA rats, CF101 treated vs control, FIG. 4A
T1 construct: knee joints protein extracts from control and CF101 treated animal were subjected to Western blot analysis; from tissue; host or cells: rat knee joint (OA rats)
T1 sequence (P28647 1-320): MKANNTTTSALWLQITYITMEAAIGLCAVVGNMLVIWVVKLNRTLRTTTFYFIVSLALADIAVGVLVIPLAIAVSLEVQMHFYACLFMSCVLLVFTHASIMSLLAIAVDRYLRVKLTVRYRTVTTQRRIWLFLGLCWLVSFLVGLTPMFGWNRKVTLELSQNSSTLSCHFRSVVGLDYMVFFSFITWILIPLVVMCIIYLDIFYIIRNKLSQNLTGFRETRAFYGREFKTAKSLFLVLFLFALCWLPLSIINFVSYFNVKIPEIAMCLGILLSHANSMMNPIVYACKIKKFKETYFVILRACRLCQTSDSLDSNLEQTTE
Text: as §1

[1] = system: mono-idoacetate (MIA) experimental osteoarthritis (OA); assay: MIA experimental osteoarthritis model, roentgenographic examination of knees; type: in vivo, rat; settings: MIA rats; CF101 100 μg/kg PO twice daily; FIGS. 3A-3D
Experimental: (§2) In the following study the effect of IB-MECA (herein, at times, CF101) on the development of experimental osteoarthritis (OA) was determined. In this study the mono-idoacetate (MIA) experimental model was utilized. The MIA is a rat experimental model that rapidly reproduces the clinical and pathological characteristic of OA. […] Infra-articular injection of MIA induces chondrocyte death in the articular cartilage of rodent. Specifically, male Wistar rats (˜200 gr) (Harlan laboratories) were anesthetized with Isoflurane and the right leg was flexed at a 90° angle of the knee. The MIA was dissolved in physiological saline and 2 mg, at a volume of 50 μL were injected intra-articular of the right foot of each animal, using a 27-gauge, 0.5-inch needle. Treatment with CF101, 100 μg/kg, Per Oz (PO), twice daily was initiated at day 7 post-injection.

IKK = assay: Western blot of knee joint protein extracts, IKK; type: in vivo, rat; settings: OA rats, CF101 treated vs control, FIG. 4C
Text: as §1

[2] = oral, healthy young men; cited from earlier work
rat FLS = assay: MTT proliferation assay, rat fibroblast like synoviocytes; type: cell-based; settings: CF101 10 nM added for the last 24 hours of 72 hours, FLS from adjuvant induced arthritis rats, FIG. 1B
Experimental: The effect of IB-MECA (herein at times CF101) alone or in combination with MTX, on the proliferation of the human or rat fibroblast like synoviocytes (FLS) was tested. […] Synovia tissue from adjuvant induced arthritis rats was collected. The tissue was minced and subjected for digestion in 4 mg/ml type I collagenase and 0.25 w/v trypsin in DMEM. The mixture was shacked vigorously for 4 hours at 37°. The released cells were separated from the supernatant by centrifugation and cultured in DMEM containing 15% FCS, 2 mM glutamine, 100 U/ml penicillin, 100 μg/ml streptomycin in a 37° C., 5% CO2 incubator. After overnight incubation the nonadherent cells were removed. The adherent cells (FLS) were sub-cultured at a 1:2 ratio, and the cells from passages 4 through 10 were used in the experiments. The effect of CF101 alone or in combination with MTX, on the proliferation of the FLS was tested utilizing an MTT assay. The cells (5×10^4/ml cells) were incubated in 96-well microtiter plates for 72 hours in the growth medium. At the last 24 hours CF101 (10 nM) were added to the cultures.

[3] = system: human fibroblast like synoviocytes (FLS); assay: MTT proliferation assay, human fibroblast like synoviocytes; type: cell-based; settings: CF101 10 nM added for the last 24 hours of 72 hours, FLS from OA patients, FIG. 1A
Experimental: The effect of IB-MECA (herein at times CF101) alone or in combination with MTX, on the proliferation of the human or rat fibroblast like synoviocytes (FLS) was tested. […] Human synovial fluid samples were collected from osteoarthritis (OA) patients undergoing paracenthesis. The fluid was centrifuged and the supernatant removed. The cells were resuspended in DMEM containing type I collagenase (4 mg/ml), for 2 hours, and shacked vigorously at 37°. The released cells in the supernatant were harvested by centrifugation and were cultured in DMEM containing 10% FBS, 2 mM glutamine, 100 U/ml penicillin, 100 μg/ml streptomycin, 1% non essential amino acids, 1% sodium pyruvate and […] HEPES buffer in a 37° C., 5% CO2 incubator. After overnight culture, non-adherent cells were removed. The adherent cells (FLS) were subcultured at a 1:2 ratio, and the cells from passages 4 through 10 were used in the experiments. The effect of CF101 alone or in combination with MTX, on the proliferation of the FLS was tested utilizing an MTT assay. The cells (5×10^4/ml cells) were incubated in 96-well microtiter plates for 72 hours in the growth medium. At the last 24 hours CF101 (10 nM) were added to the cultures.

GSK-3β = assay: Western blot of knee joint protein extracts, GSK-3β; type: in vivo, rat; settings: OA rats, CF101 treated vs control, FIG. 4E
Text: as §1

[4] = system: mono-idoacetate (MIA) experimental osteoarthritis (OA); assay: MIA experimental osteoarthritis model, knee diameter; type: in vivo, rat; settings: male Wistar rats; CF101 100 μg/kg PO twice daily from day 7 post-injection; vs control group, P=9.48317E-06; FIG. 2
Experimental: as §2, with “post-injection. Knee diameter was measured using calibrated digital caliper adapted by reinforcing the tips for knee diameter measure. The results presented in FIG. 2 show the delta between the diameter of the MIA injected knee (Right knee) and the diameter of the MIA un-injected knee (Left knee) within the same animal. The group of the control is compared to the CF101 treated group (5 animals in each group).” for “post-injection.”

With `CNC(=O)[C@H]1O[C@@H](n2cnc3c(NCc4cccc(I)c4)ncnc32)[C@H](O)[C@@H]1O` [CF101, 1-deoxy-1-{6-[({3-iodophenyl}methyl)amino]-9H-purine-9-yl}-N-methyl-β-D-ribofuranuronamide] the “PI3K expression level in knee joints” value (PI3K) was “down-regulation”, the “A3AR expression level in knee joints” value (A3AR) was “down-regulated” and the “roentgenographic examination of knees” value [1] was “normal tibial epiphysial line without sclerosis”. The “IKK expression level in knee joints” value (IKK) was “down-regulation”, the “half life in human plasma” value [2] was 8 to 10 h and the “effect on the proliferation of rat FLS” value (rat FLS) was “marked inhibitory effect”. For the same molecule, the “effect on the proliferation of human FLS” value [3] was “marked inhibitory effect”, the “GSK-3β expression level in knee joints” value (GSK-3β) was “up-regulated” and the “development of tissue swelling (delta between diameter of MIA injected and un-injected knee)” value [4] was “significantly inhibited”.

From patent publication US10265337B2, “Use of A3 adenosine receptor agonist in osteoarthritis treatment” (CAN-FITE BIOPHARMA LTD., priority 2005, dated 2019)
